We go through one substance from US8093248B2, “Compounds useful for the treatment of conditions associated with weight gain” (AstraZeneca AB (PUBL), priority 2007, dated 2012).

Experiment [1] has as its system JEG-3 cells. To be noted: Biol. Reprod. (2007) 76: 203-10; cited from earlier work.
Experiment [2] has as its system JEG-3 cells. Put plainly: [3H]-thymidine incorporation in JEG-3 cells (JEG-3 protocol). Format: cell-based. To be noted: JEG-3 choriocarcinoma cell line, FIG. 6. On the procedure: In JEG-3 cells (choriocarcinoma cell line) leptin is able to stimulate proliferation up to 3 fold (Biol. Reprod. (2007) 76: 203-10). […] The radioactivity incorporated by the cells is an index of their proliferative activity and is measured in counts per minute (CPM) with a liquid scintillation beta counter.
This finding can be applied to test whether a compound is able to either reproduce the effect of leptin on cell proliferation (leptin receptor agonist mimetic) (i.e., a given compound will cause an increase in incorporated [^3H]-Thymidine by the cells) or to inhibit the effect of leptin (antagonistic effect) by preventing the leptin-mediated increase in [^3H]-thymidine incorporation.
(Uptake of a labelled nucleoside into DNA is a usual measure of proliferation.)

With “leptin: hormone synthesized in fat cells that is believed to act in the hypothalamus to reduce food intake and body weight”, in the experiment with JEG-3 cells [1], the stimulation of proliferation entry is listed as “up to 3 fold”. Also, the “concentration of maximal effect on [3H]-thymidine incorporation” value in the experiment on JEG-3 cells [2] was 100 nM. Moreover, the EC50 with JEG-3 cells [2] (read-out: EC50 of concentration-dependent increase in [3H]-thymidine incorporation) was 2.1 nM.
